Measured values published in PMC7504721, “Targeting the Initiator Protease of the Classical Pathway of Complement Using Fragment-Based Drug Discovery” (Molecules, 2020).

Target: T1, C1r-CUB1 (Homo sapiens, UniProt P00736)
T1 construct: The C1r-CUB1 construct corresponds to C1r residues 18–141; made in house; host or cells: E. coli BL21 (DE3)
T1 sequence (P00736 18-141): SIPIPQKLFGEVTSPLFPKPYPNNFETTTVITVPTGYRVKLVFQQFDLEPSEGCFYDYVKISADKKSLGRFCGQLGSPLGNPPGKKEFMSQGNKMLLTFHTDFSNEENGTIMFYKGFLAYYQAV
Assay: SPR domain mapping, C1r-CUB1 surface
Type: binding
Conditions: duplicate
From the text: Figure 5 Selectivity and mechanistic analysis of CMP-1611 and CMP-1696. (A) Chemical structure of CMP-1611. (B) Chemical structure of CMP-1696. (C) Dose-dependent inhibition by CMP-1611 and CMP-1696 in a classical pathway-specific ELISA. Data were fit with GraphPad Prism using non-linear regression with a log(inhibitor) vs. response model. […] The CMP-778 inhibitory response could not be fit to a dose-response inhibition model. (D) Complement pathway selectivity of CMP-1611 and CMP-1696. Compounds were assessed for their ability to inhibit activation of complement via the lectin and alternative pathways using single doses of 500 μM compound in triplicate. To ensure only lectin pathway activation, 2% (v/v) C1q-depleted serum (CompTech) was used and mannan was used as the activator. To match serum sources and amounts for this assay, the classical pathway assays were repeated here using serum from CompTech at 2% (v/v) final concentration. Alternative pathway activation assays were performed using 20% (v/v) serum (CompTech), alternative pathway buffers, and C3b detection (see Methods and Materials for details). […] (E) C1r, C1r-CUB1, and C1r-CCP2-SP, were immobilized on an SPR sensor chip and binding responses for 500 μM CMP-1611 and CMP-1696 or 10 μM Futhan were each injected in duplicate over all surfaces. Binding responses were corrected for the molecular weight of each analyte and the immobilization level and molecular weight of each surface ligand. Measures of statistical significance in (D) were obtained by comparison of vehicle control using an unpaired t-test (* p < 0.05). To assess selectivity of CMP-1611 and CMP-1696, we performed pathway-specific ELISA-based inhibition assays. […] However, CMP-1696, but not CMP-1611, blocked lectin pathway activation at a similar level as it did the classical pathway (Figure 5D). To further investigate the divergent selectivity profiles of CMP-1611 and CMP-1696, we first sought to clarify the binding site on C1r for each compound. […] We then injected each compound simultaneously over the three surfaces at 500 μM and measured binding responses. […]

SMILES: N=C(N)c1ccc2cc(OC(=O)c3ccc(N=C(N)N)cc3)ccc2c1 [Futhan, reference compound]
- relative SPR binding response, C1r-CUB1 (10 µM Futhan): very little binding response

SMILES: COCc1nc(-c2ccc(OC3CNC3)cc2)no1 [CMP-1696]
- relative SPR binding response, C1r-CUB1 (500 µM compound): low binding

SMILES: CN(C)c1cc(N2CCCC(N)C2)ncn1 (stereo not drawn) [CMP-1611]
- relative SPR binding response, C1r-CUB1 (500 µM compound): bound weakly
